Measurements reported in PubChem BioAssay AID1963449 (Molecular Pharmacology Branch, DTP, NCI, 2024).
One block for each compound: values may come before it.

Tested on: 596521-263-R-J1-PDC complex spheroid growth
Assay: Anticancer human tumor 596521-263-R-J1-PDC patient-derived soft tissue sarcoma cell line growth inhibition [Asc]
Conditions: for IC50: curve of first compound; for viability, T/C: stronger effect = lower value
Method: Multicellular complex tumor spheroid response to apoptosis pathway targeting inhibitors Alrizomadlin, Pelcitoclax, and Dasminapant in combination with a variety of drugs and investigational agents in selected tumor cell lines
The MDM2 inhibitor alrizomadlin, the Bcl-2/Bcl-xL inhibitor pelcitoclax, and the IAPs inhibitor dasminapant were evaluated both individually and in combination with standard of care and investigational anticancer small molecules within a complex spheroid model of solid tumors. . Complex spheroids include a stromal component modeled by human endothelial cells (HUVEC) and fibroblasts modeled by human mesenchymal stem cells (MSCs). The concentration ranges selected for each drug and investigational agent were based upon clinically achievable concentrations if the clinical Cmax of the agent was known.
Compounds. The drugs and investigational agents: alrizomadlin (APG-115; NSC831270), pelcitoclax (APG-1252; NSC835773), dasminapant (APG-1387;NSC834197), TAK-243 (NSC785004), copanlisib (NSC809693), olaparib (NSC753686), talazoparib (NSC767125), cobimetinib (NSC 768068), eltanexor (KPT-8602, NSC 794443), abemaciclib (NSC 768073), sotorasib (NSC818433), adagrasib (NSC 831453), MRTX-1133 (NSC 836407), Iadademestat (ORY1001, NSC 806812), and RMC-4630 (NSC839698), were obtained from the NCI Developmental Therapeutics Program Chemical Repository. The FDA-approved anticancer drug set is available from the Developmental Therapeutics Program at https://dtp.cancer.gov/organization/dscb/obtaining/available plates.htm. […] The stock solutions were prepared in dimethyl sulfoxide (DMSO, Sigma-Aldrich, St. Louis, MO, cat. D2650) at 800-fold the tested concentration and stored at -70 degrees C prior to their use. All drugs and investigational agents were tested over a range starting from a high concentration at or near the clinical Cmax and decreasing in half-log increments. If the clinical Cmax for an agent had not been determined, the highest concentration tested was 10 microM.
The patient-derived cancer (PDC) cell lines include five colon adenocarcinomas: 186277-243-T-J2-PDC, 616215-338-R-J1-PDC, 439559-082-T-J2-PDC, 463943-066-T-J2-PDC, and 519858-162-T-J1-PDC; three pancreatic carcinomas: 323965-272-R-J2-PDC, 521955-158-R6-J3-PDC, and 521955-158-R2-J5-PDC; two uterine sarcomas: 327498-152-R-J2-PDC and 993429-296-R-J1-PDC; two rhabdomyosarcomas: 755483-174-R-J1-PDC and 772245-204-R-J1-PDC; two soft tissue sarcomas: 126254-015-R-J1-PDC and 494315-158-R-J1-PDC; two malignant fibrous histiocytomas: 317291-083-R-J1-PDC and 596521-263-R-J1-PDC; two breast carcinomas: 171881-019-R-J1-PDC and 885512-296-R-J2-PDC; and one ovarian carcinoma: 6556581-035-R-J-PDC were obtained from the NCI PDMR, (https://pdmr.cancer.gov). The established cell lines HSSY-2 synovial sarcoma (RRID:CVCL 8719), SYO-1 synovial sarcoma (RRID:CVCL_7146), MPNST malignant peripheral neural sheath tumor were obtained from the Sloan Kettering Institute. The following established cell lines were purchased from the American Type Culture Collection (ATCC, Manassas, VA), Sor the received from the NCI repository:, PANC-1 pancreatic carcinoma (CRL-1469, RRID:CVCL_0480), OVCAR-5 ovarian carcinoma (RRID:CVCL_1628), OVCAR-8 ovarian carcinoma (RRID:CVCL_1629), , MCF-7 breast carcinoma (CRL-12584, RRID:CVCL_0031), MDA-MB-231 breast carcinoma (CRL-12532, RRID:CVCL_0062), NCI-H1876 small cell lung carcinoma (CRL-5902, RRID:CVCL_1503), NCI-H510A small cell lung carcinoma (HTB-184, RRID:CVCL_1565), NCI-H1417 (CRL-5869, RRID:CVCL_1469), and NCI-H196 small cell lung carcinoma (CRL-5823, RRID:CVCL_1509). Dr. Peter Houghton (Greehey Children's Cancer Research Institute, University of Texas Health Science Center, San Antonio, TX) provided Rh-18 rhabdomyosarcoma (RRID:CVCL_1659). Pooled donor human umbilical vein endothelial cells (HUVEC, Lonza, cat. CC-2519) and human mesenchymal stem cells (hMSC, Lonza, cat. PT-2501) were purchased from Lonza (Walkersville, MD).
Cell Culture. […]

[1] = second compound 0.00949 µM, first compound 0.00316 µM
[2] = second compound 0.00949 µM, first compound 0.01 µM
[3] = second compound 0.00949 µM, first compound 0.0316 µM
[4] = second compound 0.00949 µM, first compound 0.1 µM
[5] = second compound 0.00949 µM, first compound 0.316 µM
[6] = second compound 0.00949 µM, first compound 1 µM
[7] = second compound 0.03 µM, first compound 0.00316 µM
[8] = second compound 0.03 µM, first compound 0.01 µM
[9] = second compound 0.03 µM, first compound 0.0316 µM
[10] = second compound 0.03 µM, first compound 0.1 µM
[11] = second compound 0.03 µM, first compound 0.316 µM
[12] = second compound 0.03 µM, first compound 1 µM
[13] = second compound 0.0949 µM, first compound 0.00316 µM
[14] = second compound 0.0949 µM, first compound 0.01 µM
[15] = second compound 0.0949 µM, first compound 0.0316 µM
[16] = second compound 0.0949 µM, first compound 0.1 µM
[17] = second compound 0.0949 µM, first compound 0.316 µM
[18] = second compound 0.0949 µM, first compound 1 µM
[19] = second compound 0.3 µM, first compound 0.00316 µM
[20] = second compound 0.3 µM, first compound 0.01 µM
[21] = second compound 0.3 µM, first compound 0.0316 µM
[22] = second compound 0.3 µM, first compound 0.1 µM
[23] = second compound 0.3 µM, first compound 0.316 µM
[24] = second compound 0.3 µM, first compound 1 µM
[25] = second compound 0.949 µM, first compound 0.00316 µM
[26] = second compound 0.949 µM, first compound 0.01 µM
[27] = second compound 0.949 µM, first compound 0.0316 µM
[28] = second compound 0.949 µM, first compound 0.1 µM
[29] = second compound 0.949 µM, first compound 0.316 µM
[30] = second compound 0.949 µM, first compound 1 µM
[31] = second compound 3 µM, first compound 0.00316 µM
[32] = second compound 3 µM, first compound 0.01 µM
[33] = second compound 3 µM, first compound 0.0316 µM
[34] = second compound 3 µM, first compound 0.1 µM
[35] = second compound 3 µM, first compound 0.316 µM
[36] = second compound 3 µM, first compound 1 µM
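Also: spheroids exposed to compounds for 7 days.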

- IC50 (second compound 0.00949 µM): > 1000 nM
- IC50 (second compound 0.03 µM): > 1000 nM
- IC50 (second compound 0.0949 µM): > 1000 nM
- IC50 (second compound 0.3 µM): > 1000 nM
- IC50 (second compound 0.949 µM): > 1000 nM
- IC50 (second compound 3 µM): > 1000 nM
Structure (SMILES): CCN1CCN(Cc2ccc(Nc3ncc(F)c(-c4cc(F)c5nc(C)n(C(C)C)c5c4)n3)nc2)CC1 + CCN1C(C(=O)NC23CCC(C(=O)O)(CC2)CC3)C(c2cccc(Cl)c2F)C2(C(=O)Nc3cc(Cl)ccc32)C12CCCCC2
- viability, T/C [1]: 100%
- viability, T/C [2]: 96.6%
- viability, T/C [3]: 82.5%
- viability, T/C [4]: 103%
- viability, T/C [5]: 97.5%
- viability, T/C [6]: 83.2%
- viability, T/C [7]: 92.6%
- viability, T/C [8]: 96.9%
- viability, T/C [9]: 96.8%
- viability, T/C [10]: 89.4%
- viability, T/C [11]: 110%
- viability, T/C [12]: 88%
- viability, T/C [13]: 99.5%
- viability, T/C [14]: 112%
- viability, T/C [15]: 96.1%
- viability, T/C [16]: 85.5%
- viability, T/C [17]: 93.6%
- viability, T/C [18]: 86.7%
- viability, T/C [19]: 97.1%
- viability, T/C [20]: 93.5%
- viability, T/C [21]: 90%
- viability, T/C [22]: 102%
- viability, T/C [23]: 93.1%
- viability, T/C [24]: 77.3%
- viability, T/C [25]: 103%
- viability, T/C [26]: 93.2%
- viability, T/C [27]: 103%
- viability, T/C [28]: 91.2%
- viability, T/C [29]: 82.8%
- viability, T/C [30]: 83.4%
- viability, T/C [31]: 91.6%
- viability, T/C [32]: 102%
- viability, T/C [33]: 89.9%
- viability, T/C [34]: 97.7%
- viability, T/C [35]: 98.5%
- viability, T/C [36]: 89.9%

- IC50 (second compound 0.00949 µM): 493 nM
- IC50 (second compound 0.03 µM): 466 nM
- IC50 (second compound 0.0949 µM): 418 nM
- IC50 (second compound 0.3 µM): 428 nM
- IC50 (second compound 0.949 µM): 356 nM
- IC50 (second compound 3 µM): 315 nM
Structure (SMILES): O=C(c1ccc(F)c(F)c1Nc1ccc(I)cc1F)N1CC(O)([C@@H]2CCCCN2)C1 + CCN1C(C(=O)NC23CCC(C(=O)O)(CC2)CC3)C(c2cccc(Cl)c2F)C2(C(=O)Nc3cc(Cl)ccc32)C12CCCCC2
- viability, T/C [1]: 113%
- viability, T/C [2]: 98.4%
- viability, T/C [3]: 112%
- viability, T/C [4]: 83.6%
- viability, T/C [5]: 58.4%
- viability, T/C [6]: 38.8%
- viability, T/C [7]: 104%
- viability, T/C [8]: 100%
- viability, T/C [9]: 103%
- viability, T/C [10]: 81.9%
- viability, T/C [11]: 57.8%
- viability, T/C [12]: 36.4%
- viability, T/C [13]: 101%
- viability, T/C [14]: 96.1%
- viability, T/C [15]: 112%
- viability, T/C [16]: 84.3%
- viability, T/C [17]: 56.4%
- viability, T/C [18]: 34.3%
- viability, T/C [19]: 119%
- viability, T/C [20]: 94.9%
- viability, T/C [21]: 101%
- viability, T/C [22]: 79.1%
- viability, T/C [23]: 51.4%
- viability, T/C [24]: 37%
- viability, T/C [25]: 97.8%
- viability, T/C [26]: 99.8%
- viability, T/C [27]: 98.2%
- viability, T/C [28]: 82.9%
- viability, T/C [29]: 51.4%
- viability, T/C [30]: 39.7%
- viability, T/C [31]: 97.1%
- viability, T/C [32]: 84.9%
- viability, T/C [33]: 91.5%
- viability, T/C [34]: 65.6%
- viability, T/C [35]: 53.4%
- viability, T/C [36]: 44.5%
